Results taken from BindingDB's records for doi:10.1021/acs.jmedchem.8b01821 (Rheinische Friedrich-Wilhelms-University of Bonn, 2019).

Legend:
[1] = Reversal of ABCC1 (unknown origin)-mediated multidrug resistance in MDCK2 cells co-expressing MRP1 (unknown origin) assessed as potentiation of daunorubicin-induced cytotoxicity incubated for 72 hrs by MTT assay
[2] = Reversal of ABCG2 (unknown origin)-mediated multidrug resistance in MDCK2 cells co-expressing BCRP (unknown origin) assessed as potentiation of SN-38-induced cytotoxicity incubated for 72 hrs by MTT assay
[3] = Reversal of ABCB1-mediated multidrug resistance in human A2780/ADR cells assessed as potentiation of daunorubicin-induced cytotoxicity incubated for 72 hrs by MTT assay
[4] = Reversal of ABCC1-mediated multidrug resistance in human H69AR cells assessed as potentiation of daunorubicin-induced cytotoxicity incubated for 72 hrs by MTT assay
[5] = Reversal of ABCB1 (unknown origin)-mediated multidrug resistance in MDCK2 cells co-expressing MDR1 (unknown origin) assessed as potentiation of daunorubicin-induced cytotoxicity incubated for 72 hrs by MTT assay
[6] = Reversal of ABCG2-mediated multidrug resistance in human MCF-7/MX cells assessed as potentiation of SN-38-induced cytotoxicity incubated for 72 hrs by MTT assay

CC1CCc2c(sc3nc(-c4cccnc4)nc(N4CCN(C(C(N)=O)c5ccccc5)CC4)c23)C1 (stereo unspecified)
EC50 [1]: 728 nM | EC50 [2]: 1310 nM | EC50 [3]: 748 nM | EC50 [4]: 2690 nM | EC50 [5]: 361 nM | EC50 [6]: 2730 nM
